Assay results taken from PubChem BioAssay (NCI).
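In this assay, cells in 96-well plates receive the compound at five concentrations for 48 hours. Endpoints are linearly interpolated between the surrounding concentrations. GI50: concentration for 50% inhibition of growth. At the TGI there is no net growth.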

How the values were obtained:
Assay in all cases: growth of human tumour cells (NCI), 48 h
ACHN renal = test system: ACHN renal
SF-539 CNS = test system: SF-539 CNS
RXF 393 renal = test system: RXF 393 renal
PC-3 prostate = test system: PC-3 prostate
MOLT-4 leukemia = test system: MOLT-4 leukemia
EKVX NSCLC = test system: EKVX NSCLC
NCI-H23 lung = test system: NCI-H23 lung
MCF7 breast = test system: MCF7 breast
COLO 205 colon = test system: COLO 205 colon
NCI-H522 lung = test system: NCI-H522 lung
SF-295 CNS = test system: SF-295 CNS
SNB-75 CNS = test system: SNB-75 CNS
OVCAR-8 ovarian = test system: OVCAR-8 ovarian
SK-MEL-5 melanoma = test system: SK-MEL-5 melanoma
SK-MEL-2 melanoma = test system: SK-MEL-2 melanoma
OVCAR-5 ovarian = test system: OVCAR-5 ovarian
SW-620 colon = test system: SW-620 colon
M14 melanoma = test system: M14 melanoma
CAKI-1 renal = test system: CAKI-1 renal
CCRF-CEM leukemia = test system: CCRF-CEM leukemia
HS 578T breast = test system: HS 578T breast
MDA-MB-231 breast = test system: MDA-MB-231 breast
HCT-116 colon = test system: HCT-116 colon
HOP-92 NSCLC = test system: HOP-92 NSCLC
A498 renal = test system: A498 renal
SN12C renal = test system: SN12C renal
NCI-H226 lung = test system: NCI-H226 lung
HT29 colon = test system: HT29 colon
A549 NSCLC = test system: A549 NSCLC
SK-MEL-28 melanoma = test system: SK-MEL-28 melanoma
BT-549 breast = test system: BT-549 breast
IGROV1 ovarian = test system: IGROV1 ovarian
SNB-19 CNS = test system: SNB-19 CNS
DU-145 prostate = test system: DU-145 prostate
KM12 colon = test system: KM12 colon
OVCAR-4 ovarian = test system: OVCAR-4 ovarian
NCI-H460 lung = test system: NCI-H460 lung
SF-268 CNS = test system: SF-268 CNS
TK-10 renal = test system: TK-10 renal
HCC-2998 colon = test system: HCC-2998 colon
SK-OV-3 ovarian = test system: SK-OV-3 ovarian
LOX IMVI melanoma = test system: LOX IMVI melanoma
UO-31 renal = test system: UO-31 renal
HOP-62 NSCLC = test system: HOP-62 NSCLC
U251 CNS = test system: U251 CNS
NCI/ADR-RES ovarian = test system: NCI/ADR-RES ovarian
MALME-3M melanoma = test system: MALME-3M melanoma
SR leukemia = test system: SR leukemia
OVCAR-3 ovarian = test system: OVCAR-3 ovarian
786-0 renal = test system: 786-0 renal
T-47D breast = test system: T-47D breast
UACC-62 melanoma = test system: UACC-62 melanoma
HL-60(TB) leukemia = test system: HL-60(TB) leukemia
HCT-15 colon = test system: HCT-15 colon
RPMI-8226 leukemia = test system: RPMI-8226 leukemia
K-562 leukemia = test system: K-562 leukemia

## CCOC(=O)/C=C/C1=C(c2ccsc2)c2ccc(OC)cc2CC1
ACHN renal
  GI50: 701 nM
  TGI: > 52700 nM
SF-539 CNS
  GI50: 388 nM
  TGI: 6130 nM
RXF 393 renal
  GI50: 235 nM
  TGI: 5020 nM
PC-3 prostate
  GI50: 202 nM
MOLT-4 leukemia
  GI50: 512 nM
  TGI: 12900 nM
EKVX NSCLC
  GI50: 6000 nM
  TGI: > 100000 nM
NCI-H23 lung
  GI50: 525 nM
  TGI: > 100000 nM
MCF7 breast
  GI50: 364 nM
  TGI: 26400 nM
COLO 205 colon
  GI50: 213 nM
  TGI: 1360 nM
NCI-H522 lung
  GI50: 260 nM
  TGI: > 100000 nM
SF-295 CNS
  GI50: 349 nM
  TGI: 20600 nM
SNB-75 CNS
  GI50: 263 nM
  TGI: > 100000 nM
OVCAR-8 ovarian
  GI50: 661 nM
  TGI: > 41900 nM
SK-MEL-5 melanoma
  GI50: 195 nM
  TGI: 11200 nM
SK-MEL-2 melanoma
  GI50: 3660 nM
  TGI: > 24700 nM
OVCAR-5 ovarian
  GI50: 1660 nM
  TGI: > 100000 nM
SW-620 colon
  GI50: 349 nM
  TGI: > 100000 nM
M14 melanoma
  GI50: 378 nM
  TGI: > 100000 nM
CAKI-1 renal
  GI50: 387 nM
  TGI: > 100000 nM
CCRF-CEM leukemia
  GI50: 328 nM
HS 578T breast
  GI50: 430 nM
  TGI: > 38700 nM
MDA-MB-231 breast
  GI50: 924 nM
  TGI: 19700 nM
HCT-116 colon
  GI50: 376 nM
  TGI: > 39400 nM
HOP-92 NSCLC
  GI50: 2290 nM
  TGI: > 55400 nM
A498 renal
  GI50: 512 nM
  TGI: > 31300 nM
SN12C renal
  GI50: 837 nM
  TGI: > 23900 nM
NCI-H226 lung
  GI50: 769 nM
  TGI: > 62800 nM
HT29 colon
  GI50: 275 nM
  TGI: > 41400 nM
A549 NSCLC
  GI50: 671 nM
  TGI: > 100000 nM
SK-MEL-28 melanoma
  GI50: 982 nM
  TGI: > 49800 nM
BT-549 breast
  GI50: 787 nM
  TGI: > 46900 nM
IGROV1 ovarian
  GI50: 6260 nM
  TGI: > 100000 nM
SNB-19 CNS
  GI50: 357 nM
  TGI: > 100000 nM
DU-145 prostate
  GI50: 473 nM
  TGI: > 36500 nM
KM12 colon
  GI50: 169 nM
  TGI: 15400 nM
OVCAR-4 ovarian
  GI50: 2330 nM
  TGI: > 100000 nM
NCI-H460 lung
  GI50: 2210 nM
  TGI: 15800 nM
SF-268 CNS
  GI50: 656 nM
  TGI: 58100 nM
TK-10 renal
  GI50: 716 nM
  TGI: > 100000 nM
HCC-2998 colon
  GI50: 4570 nM
  TGI: 26700 nM
SK-OV-3 ovarian
  GI50: 359 nM
  TGI: > 85600 nM
LOX IMVI melanoma
  GI50: 610 nM
  TGI: > 50100 nM
UO-31 renal
  GI50: 7600 nM
  TGI: > 100000 nM
HOP-62 NSCLC
  GI50: 599 nM
  TGI: > 100000 nM
U251 CNS
  GI50: 405 nM
  TGI: > 100000 nM
NCI/ADR-RES ovarian
  GI50: 285 nM
MALME-3M melanoma
  GI50: 205 nM
  TGI: > 100000 nM
SR leukemia
  GI50: 156 nM
  TGI: 6370 nM
OVCAR-3 ovarian
  GI50: 205 nM
  TGI: 686 nM
786-0 renal
  GI50: 511 nM
  TGI: 30300 nM
T-47D breast
  GI50: 330 nM
  TGI: > 100000 nM
UACC-62 melanoma
  GI50: 1790 nM
  TGI: 26200 nM
HL-60(TB) leukemia
  GI50: 206 nM
  TGI: 794 nM
HCT-15 colon
  GI50: 222 nM
  TGI: > 20200 nM
RPMI-8226 leukemia
  GI50: 292 nM
  TGI: 4150 nM
K-562 leukemia
  GI50: 59.2 nM
  TGI: 12500 nM
